Measurements as given in patent US8791132B2, “Compounds and methods for treatment of hypertension” (Medivation Technologies, Inc., priority 2011, dated 2014).
Several values for one entry are separate records, joined by “and”; a condition that tells them apart may be missing. Equal entries are not always repeated. Where two headings read alike, the source gives them in different places.

Tests used:
[1] = biological target: T1, human recombinant adrenergic α2A receptor (Homo sapiens, UniProt P08913); experiment: Radioligand binding, adrenergic α2A ([3H]MK-912); conditions: [3H]MK-912, repeat datapoints each shown; for Percentage inhibition of ligand binding, Adrenergic α2A (0.1 μM): compound at 0.1 μM; for inhibition at 0.1 µM: read-out: Percentage inhibition of ligand binding, Adrenergic α2A (0.1 μM), compound at 0.1 μM
T1 construct: expressed in transfected cells; host or cells: insect Sf9 cells
T1 sequence (P08913 1-465): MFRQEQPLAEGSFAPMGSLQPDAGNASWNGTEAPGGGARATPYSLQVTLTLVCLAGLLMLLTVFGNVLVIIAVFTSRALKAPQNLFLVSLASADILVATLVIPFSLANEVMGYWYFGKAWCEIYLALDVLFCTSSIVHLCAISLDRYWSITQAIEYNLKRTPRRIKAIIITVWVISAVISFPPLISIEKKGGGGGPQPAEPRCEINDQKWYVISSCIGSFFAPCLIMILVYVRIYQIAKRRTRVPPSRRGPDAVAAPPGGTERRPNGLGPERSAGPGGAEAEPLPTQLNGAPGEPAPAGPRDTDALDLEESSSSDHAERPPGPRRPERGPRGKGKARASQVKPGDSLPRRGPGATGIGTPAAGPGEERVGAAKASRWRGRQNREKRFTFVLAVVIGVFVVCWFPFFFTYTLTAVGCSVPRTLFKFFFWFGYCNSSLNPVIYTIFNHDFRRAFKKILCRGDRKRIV
Outline: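 Sf9-expressed receptor was incubated with compound for 60 min at 25 °C in modified Tris-HCl buffer, pH 7.4. Nonspecific binding was taken as that remaining with 10 μM WB-4101.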

[2] = biological target: T2, human recombinant adrenergic α2B receptor (Homo sapiens, UniProt P18089); experiment: Radioligand binding, adrenergic α2B ([3H]Rauwolscine); conditions: for Percentage inhibition of ligand binding, Adrenergic α2B (0.03 μM): compound at 0.03 μM; for Percentage inhibition of ligand binding, Adrenergic α2B (0.03 μM) / inhibition at 0.03 µM / inhibition at 0.1 µM: [3H]Rauwolscine, repeat datapoints each shown; for inhibition at 0.03 µM: read-out: Percentage inhibition of ligand binding, Adrenergic α2B (0.03 μM), compound at 0.03 μM; for inhibition at 0.1 µM: read-out: Percentage inhibition of ligand binding, Adrenergic α2B (0.1 μM), compound at 0.1 μM
T2 construct: expressed in transfected cells; host or cells: CHO-K1
T2 sequence (P18089 1-450): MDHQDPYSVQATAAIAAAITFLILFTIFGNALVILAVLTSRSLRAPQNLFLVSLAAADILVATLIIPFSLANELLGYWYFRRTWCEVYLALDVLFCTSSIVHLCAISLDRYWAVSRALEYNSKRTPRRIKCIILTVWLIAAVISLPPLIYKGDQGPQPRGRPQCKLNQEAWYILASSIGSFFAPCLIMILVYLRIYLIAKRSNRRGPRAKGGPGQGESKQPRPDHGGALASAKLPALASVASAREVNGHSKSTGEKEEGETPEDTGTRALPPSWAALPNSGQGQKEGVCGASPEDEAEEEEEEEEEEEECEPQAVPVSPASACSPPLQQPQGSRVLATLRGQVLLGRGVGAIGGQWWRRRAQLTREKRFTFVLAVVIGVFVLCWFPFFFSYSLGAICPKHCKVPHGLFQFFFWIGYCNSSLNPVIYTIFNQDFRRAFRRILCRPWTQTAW
Outline: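 Receptor expressed in CHO-K1 cells, assayed in 50 mM Tris-HCl pH 7.4 with 12.5 mM MgCl2, 1 mM EDTA and 0.2% BSA. Compounds were incubated with 2.5 nM [3H]Rauwolscine for 60 min at 25° C; 10 μM Prazosin defined non-specific binding. Filter counting gave percent inhibition of specific binding.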

[3] = biological target: T3, rat adrenergic α1B receptor (Rattus norvegicus, UniProt P15823); experiment: Radioligand binding, adrenergic α1B ([3H]Prazosin); conditions: [3H]Prazosin, repeat datapoints each shown; for Percentage inhibition of ligand binding, Adrenergic α1B (0.1 μM): compound at 0.1 μM; for inhibition at 0.1 µM: read-out: Percentage inhibition of ligand binding, Adrenergic α1B (0.1 μM), compound at 0.1 μM
T3 construct: rat adrenergic α1B receptor obtained from Wistar Rat liver; from tissue; host or cells: Wistar rat liver
T3 sequence (P15823 1-515): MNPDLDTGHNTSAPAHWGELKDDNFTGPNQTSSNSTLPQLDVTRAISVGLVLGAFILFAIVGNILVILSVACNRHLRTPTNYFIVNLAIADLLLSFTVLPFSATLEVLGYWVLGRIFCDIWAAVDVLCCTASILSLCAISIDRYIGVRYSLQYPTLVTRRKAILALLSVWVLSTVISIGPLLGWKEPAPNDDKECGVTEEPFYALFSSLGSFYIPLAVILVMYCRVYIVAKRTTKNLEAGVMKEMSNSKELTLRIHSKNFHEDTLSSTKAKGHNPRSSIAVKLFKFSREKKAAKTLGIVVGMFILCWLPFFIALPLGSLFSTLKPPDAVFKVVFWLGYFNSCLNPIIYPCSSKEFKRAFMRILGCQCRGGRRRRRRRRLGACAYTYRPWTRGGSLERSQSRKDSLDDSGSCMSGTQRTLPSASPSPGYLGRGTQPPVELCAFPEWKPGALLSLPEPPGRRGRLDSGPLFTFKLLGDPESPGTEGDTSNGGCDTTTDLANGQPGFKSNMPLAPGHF
Outline: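 Incubation ran 60 min at 25 °C in Tris-HCl buffer (50 mM, pH 7.4, 0.5 mM EDTA) with Wistar rat liver α1B receptor. 10 μM phentolamine set non-specific binding.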

Cc1ccc2c(c1)c1c(n2CC(C)(N)c2cccnc2)CCN(C)C1 (single isomer, unassigned) [149b, 1-(2,8-dimethyl-3,4-dihydro-1H-pyrido[4,3-b]indol-5(2H)-yl)-2-(pyridin-3-yl)propan-2-amine]
Percentage inhibition of ligand binding, Adrenergic α2A (0.1 μM) [1]: 19% | Percentage inhibition of ligand binding, Adrenergic α2B (0.03 μM) [2]: 32% | Percentage inhibition of ligand binding, Adrenergic α1B (0.1 μM) [3]: 16%

Cc1ccc2c(c1)c1c(n2CC(c2ccncc2)N(C)C)CCN(C)C1 (single isomer, unassigned) [150a]
inhibition at 0.1 µM [1]: 16% | Percentage inhibition of ligand binding, Adrenergic α2B (0.03 μM) [2]: 96% | Ki ([2]; read-out: Ki α2B): 1.57 nM | inhibition at 0.03 µM [2]: 88% | inhibition at 0.1 µM [2]: 100% | inhibition at 0.1 µM [3]: 16%

CNC(Cn1c2c(c3cc(C)ccc31)CN(C)CC2)c1ccncc1 (single isomer, unassigned) [151a, 2-(1,2,3,4-tetrahydro-2,8-dimethylpyrido[4,3-b]indol-5-yl)-N-methyl-1-(pyridin-4-yl)ethanamine]
inhibition at 0.1 µM [1]: 15% | Percentage inhibition of ligand binding, Adrenergic α2B (0.03 μM) [2]: 93% | inhibition at 0.1 µM [3]: 11%

CNC(Cn1c2c(c3cc(C)ccc31)CN(C)CC2)c1ccncc1 (single isomer, unassigned) [151b, 2-(1,2,3,4-tetrahydro-2,8-dimethylpyrido[4,3-b]indol-5-yl)-N-methyl-1-(pyridin-4-yl)ethanamine]
Percentage inhibition of ligand binding, Adrenergic α2A (0.1 μM) [1]: 8% | Percentage inhibition of ligand binding, Adrenergic α2B (0.03 μM) [2]: 37% | Percentage inhibition of ligand binding, Adrenergic α1B (0.1 μM) [3]: 9%

Cc1ccc2c(c1)c1c(n2CC(N)c2ccncc2)CCN(C)CC1 (single isomer, unassigned) [154a, 2-(3,9-dimethyl-2,3,4,5-tetrahydroazepino[4,5-b]indol-6(1H)-yl)-1-(pyridin-4-yl)ethanamine]
Percentage inhibition of ligand binding, Adrenergic α2A (0.1 μM) [1]: 4% | Percentage inhibition of ligand binding, Adrenergic α2B (0.03 μM) [2]: 31% | Percentage inhibition of ligand binding, Adrenergic α1B (0.1 μM) [3]: 39%

Cc1ccc2c(c1)c1c(n2CC(N)c2ccncc2)CCN(C)CC1 (single isomer, unassigned) [154b, 2-(3,9-dimethyl-2,3,4,5-tetrahydroazepino[4,5-b]indol-6(1H)-yl)-1-(pyridin-4-yl)ethanamine]
inhibition at 0.1 µM [1]: 5% | Ki ([2]; Ki α2B): 3.33 nM | Percentage inhibition of ligand binding, Adrenergic α2B (0.03 μM) [2]: 83% | inhibition at 0.03 µM [2]: 80% | inhibition at 0.1 µM [2]: 95% | inhibition at 0.03 µM ([3]; read-out: Percentage inhibition of ligand binding, Adrenergic α1B (0.03 μM), compound at 0.03 μM): 80% | inhibition at 0.1 µM [3]: 95%

Cc1ccc2c(c1)c1c(n2CC(N)c2ccncc2)CC2CCC1N2C (single isomer, unassigned) [155b]
Percentage inhibition of ligand binding, Adrenergic α2A (0.1 μM) [1]: 5% | Percentage inhibition of ligand binding, Adrenergic α2B (0.03 μM) [2]: 5% | Percentage inhibition of ligand binding, Adrenergic α1B (0.1 μM) [3]: 1%

Cc1cnc2c(c1)c1c(n2CC(N)c2ccc(C#N)cc2)CCN(C)C1 (single isomer, unassigned) [159b]
Percentage inhibition of ligand binding, Adrenergic α2A (0.1 μM) [1]: −12% | Percentage inhibition of ligand binding, Adrenergic α2B (0.03 μM) [2]: 52% | Percentage inhibition of ligand binding, Adrenergic α1B (0.1 μM) [3]: 53%

Cc1cnc2c(c1)c1c(n2CC(N)c2ccc(C#N)cc2)CCNC1 (single isomer, unassigned) [160a]
Percentage inhibition of ligand binding, Adrenergic α2A (0.1 μM) [1]: −12% | inhibition at 0.03 µM [2]: 43% | Percentage inhibition of ligand binding, Adrenergic α1B (0.1 μM) [3]: 35%

Cc1cnc2c(c1)c1c(n2CC(N)c2ccc(C#N)cc2)CCNC1 (single isomer, unassigned) [160b]
Percentage inhibition of ligand binding, Adrenergic α2A (0.1 μM) [1]: 5% | Percentage inhibition of ligand binding, Adrenergic α2B (0.03 μM) [2]: 41% | Percentage inhibition of ligand binding, Adrenergic α1B (0.1 μM) [3]: 65%

Cc1ccc2c(c1)c1c(n2CC(O)c2ccc(F)cc2F)CCN(C)CC1 (single isomer, unassigned) [172a]
Percentage inhibition of ligand binding, Adrenergic α2A (0.1 μM) [1]: 18% | Percentage inhibition of ligand binding, Adrenergic α2B (0.03 μM) [2]: 65% | Percentage inhibition of ligand binding, Adrenergic α1B (0.1 μM) [3]: 54%

Cc1ccc2c(c1)c1c(n2CC(O)c2ccc(F)cc2F)CCN(C)CC1 (single isomer, unassigned) [172b]
Percentage inhibition of ligand binding, Adrenergic α2A (0.1 μM) [1]: 46% | Percentage inhibition of ligand binding, Adrenergic α2B (0.03 μM) [2]: 93% | Percentage inhibition of ligand binding, Adrenergic α1B (0.1 μM) [3]: 92%

CN1CCc2c(c3ccccc3n2CC(C)(O)c2cccnc2)C1 (single isomer, unassigned) [173a]
Percentage inhibition of ligand binding, Adrenergic α2A (0.1 μM) [1]: 15% | Percentage inhibition of ligand binding, Adrenergic α2B (0.03 μM) [2]: 61% and 68% | Ki ([2]; read-out: Ki α2B): 8.77 nM | inhibition at 0.1 µM [2]: 82% | inhibition at 0.1 µM [3]: 5%

CN1CCc2c(c3ccccc3n2CC(C)(O)c2cccnc2)C1 (single isomer, unassigned) [173b]
Percentage inhibition of ligand binding, Adrenergic α2A (0.1 μM) [1]: −2% | Percentage inhibition of ligand binding, Adrenergic α2B (0.03 μM) [2]: 28% | Percentage inhibition of ligand binding, Adrenergic α1B (0.1 μM) [3]: 8%

CN1CCc2c(c3cc(C(F)(F)F)ccc3n2CC(C)(O)c2cccnc2)C1 (single isomer, unassigned) [174a]
Percentage inhibition of ligand binding, Adrenergic α2A (0.1 μM) [1]: 22% | Percentage inhibition of ligand binding, Adrenergic α2B (0.03 μM) [2]: 62% and 71% | Ki ([2]; read-out: Ki α2B): 7.91 nM | inhibition at 0.1 µM [2]: 86% | inhibition at 0.1 µM [3]: 13%

CN1CCc2c(c3cc(C(F)(F)F)ccc3n2CC(C)(O)c2cccnc2)C1 (single isomer, unassigned) [174b]
Percentage inhibition of ligand binding, Adrenergic α2A (0.1 μM) [1]: 6% | Percentage inhibition of ligand binding, Adrenergic α2B (0.03 μM) [2]: 15% | Percentage inhibition of ligand binding, Adrenergic α1B (0.1 μM) [3]: 11%

CC(O)(Cn1c2c(c3cc(Cl)ccc31)CNCC2)c1cccnc1 (single isomer, unassigned) [175a]
inhibition at 0.1 µM [1]: 11% | Percentage inhibition of ligand binding, Adrenergic α2B (0.03 μM) [2]: 69% and 73% | Ki ([2]; read-out: Ki α2B): 4.42 nM | inhibition at 0.1 µM [2]: 90% | Percentage inhibition of ligand binding, Adrenergic α1B (0.1 μM) [3]: 11%

CC(O)(Cn1c2c(c3cc(Cl)ccc31)CNCC2)c1cccnc1 (single isomer, unassigned) [175b]
Percentage inhibition of ligand binding, Adrenergic α2A (0.1 μM) [1]: 7% | Percentage inhibition of ligand binding, Adrenergic α2B (0.03 μM) [2]: 4% | Percentage inhibition of ligand binding, Adrenergic α1B (0.1 μM) [3]: 4%

Cc1ccc2c(c1)c1c(n2CC(C)(O)c2cnccn2)CCN2CCCC12 (single isomer, unassigned) [176b]
Percentage inhibition of ligand binding, Adrenergic α2A (0.1 μM) [1]: 12% | Percentage inhibition of ligand binding, Adrenergic α2B (0.03 μM) [2]: 67% | Percentage inhibition of ligand binding, Adrenergic α1B (0.1 μM) [3]: 41%
